Laboratory results as given in ChEMBL document CHEMBL4342404, “Anti-cholinesterase hybrids as multi-target-directed ligands against Alzheimer's disease (1998-2018)” (Bioorg Med Chem, 2019).

Experiments:
[1] = system: Rattus norvegicus; experiment: In vivo inhibition of MAO-B in Sprague-Dawley rat at 26 mg/kg, po administered for 2 weeks by radioassay method relative to control; assay type: functional; conditions: 336 h
[2] = system: Rattus norvegicus; experiment: In vivo inhibition of MAO-A in Sprague-Dawley rat at 26 mg/kg, po administered for 2 weeks by radioassay method relative to control; assay type: functional; conditions: 336 h
[3] = biological target: T1, Cholinesterase (Equus caballus, UniProt P81908); experiment: Inhibition of equine serum BuChE using butyrylthiocholine iodide as substrate pretreated 60 mins followed by substrate addition by Ellman's method
[4] = biological target: T2, Cholinesterase (Homo sapiens, UniProt P06276); experiment: Inhibition of human butyrylcholinesterase by Ellman's method
[5] = biological target: T3, Acetylcholinesterase (Bos taurus, UniProt P23795)
T3 sequence (P23795 whole entry): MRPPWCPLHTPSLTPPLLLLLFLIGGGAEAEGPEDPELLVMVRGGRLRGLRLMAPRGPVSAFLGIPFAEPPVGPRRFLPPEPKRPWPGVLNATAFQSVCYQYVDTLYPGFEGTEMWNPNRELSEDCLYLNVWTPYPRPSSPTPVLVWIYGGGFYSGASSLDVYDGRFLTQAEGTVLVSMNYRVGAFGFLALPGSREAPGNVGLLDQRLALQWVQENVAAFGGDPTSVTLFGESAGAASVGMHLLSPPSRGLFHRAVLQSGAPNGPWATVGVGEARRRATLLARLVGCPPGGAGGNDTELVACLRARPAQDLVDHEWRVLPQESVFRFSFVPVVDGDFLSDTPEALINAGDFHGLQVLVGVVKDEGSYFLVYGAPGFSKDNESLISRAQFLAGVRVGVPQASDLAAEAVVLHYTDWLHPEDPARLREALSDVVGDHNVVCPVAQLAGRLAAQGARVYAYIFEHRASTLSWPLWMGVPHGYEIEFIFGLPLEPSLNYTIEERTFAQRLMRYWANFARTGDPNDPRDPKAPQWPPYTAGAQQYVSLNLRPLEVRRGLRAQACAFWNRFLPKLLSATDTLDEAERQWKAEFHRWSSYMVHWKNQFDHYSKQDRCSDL
Description: Inhibition of bovine erythrocyte acetylcholinesterase using acetylthiocholine as substrate incubated for 15 mins by Ellman's method

[6] = biological target: T2, Cholinesterase; experiment: Inhibition of human plasma butyrylcholinesterase by Ellman's method
[7] = biological target: Amine oxidase [flavin-containing] A (Homo sapiens, UniProt P21397)
Description: Inhibition of recombinant human MAOA expressed in baculovirus infected BTI insect cells using p-tyramine as substrate preincubated for 30 mins followed by substrate addition by Amplex red reagent/horseradish peroxidase coupled fluorescence assay

[8] = biological target: T4, Acetylcholinesterase (Homo sapiens, UniProt P22303); experiment: biochemical
Description: Inhibition of human acetylcholinesterase expressed in HEK 293 cells using acetylthiocholine iodide as substrate by Ellman's method

[9] = biological target: Histamine H3 receptor (Homo sapiens, UniProt Q9Y5N1); experiment: biochemical
Description: Displacement of [3H]-N-alpha-methylhistamine from human H3R expressed in HEK293 cell membranes incubated for 90 mins by liquid scintillation counting method

[10] = biological target: T4, Acetylcholinesterase; experiment: Inhibition of human acetylcholinesterase by Ellman's method
[11] = biological target: Amine oxidase [flavin-containing] B (Homo sapiens, UniProt P27338); experiment: Inhibition of recombinant human MAO-B using p-tyramine as substrate preincubated for 15 mins followed by substrate addition and measured over 15 mins by Amplex red reagent/horseradish peroxidase coupled fluorescence assay
[12] = biological target: Amyloid-beta precursor protein (Homo sapiens) (UniProt P05067); experiment: Inhibition of HFIP pretreated amyloid beta (1-42) (unknown origin) self aggregation at 20 uM incubated for 48 hrs by thioflavin T based fluorescence assay relative to control
[13] = Antioxidant activity assessed as trolox equivalent of AAPH radical scavenging activity at 10 uM preincubated for 10 mins followed by APPH addition and measured every min for 120 mins by ORAC-FL assay relative to trolox; assay type: functional
[14] = biological target: T5, Acetylcholinesterase (Electrophorus electricus, UniProt O42275)
Description: Inhibition of electric eel AChE using acetylthiocholine iodide as substrate preincubated for 15 mins followed by substrate addition and measured after 15 mins by Ellman's method

[15] = biological target: T1, Cholinesterase
Description: Inhibition of equine serum BuChE preincubated for 15 mins followed by substrate addition and measured after 15 mins by Ellman's method

[16] = biological target: T4, Acetylcholinesterase; experiment: Inhibition of human Acetylcholinesterase using acetylthiocholine as substrate preincubated for 20 mins followed by substrate addition by Ellman's method
[17] = biological target: T2, Cholinesterase; experiment: Inhibition of human serum butyrylcholinesterase using butyrylthiocholine iodide as substrate preincubated for 20 mins followed by substrate addition by Ellman's method
[18] = biological target: T6, Beta-secretase 1 (Homo sapiens, UniProt P56817); experiment: Inhibition human BACE1 expressed in baculovirus expression system at 10 uM using Panvera peptide as substrate preincubated for 60 mins followed by substrate addition and measured after 60 mins by spectrofluorometric assay relative to control
[19] = biological target: T6, Beta-secretase 1; experiment: Inhibition human BACE1 expressed in baculovirus expression system using Panvera peptide as substrate preincubated for 60 mins followed by substrate addition and measured after 60 mins by spectrofluorometric assay
[20] = biological target: T4, Acetylcholinesterase; experiment: Inhibition of human AChE-induced amyloid beta 1 to 40 (unknown origin) aggregation at 100 uM by thioflavin-T fluorescence method relative to control
[21] = biological target: Amyloid-beta precursor protein (Homo sapiens) (UniProt P05067); experiment: Inhibition of HFIP pretreated amyloid beta (1-42) (unknown origin) self aggregation at 10 uM incubated for 24 hrs by thioflavin T based fluorescence assay relative to control
[22] = biological target: T5, Acetylcholinesterase; experiment: Inhibition of electric eel AChE using acetylthiocholine iodide as substrate preincubated for 6 mins followed by substrate addition and measured up to 180 secs by Ellman's method
[23] = biological target: T1, Cholinesterase; experiment: Inhibition of equine serum BuChE using S-butyrylthiocholine iodide as substrate preincubated for 6 mins followed by substrate addition and measured up to 180 secs by Ellman's method
[24] = biological target: T4, Acetylcholinesterase; experiment: Inhibition of AChE (unknown origin)-induced human amyloid beta 1 to 40 aggregation at 100 uM by thioflavin-T fluorescence method relative to control
[25] = biological target: T5, Acetylcholinesterase; experiment: Inhibition of electric eel AChE using acetylthiocholine iodide as substrate pretreated followed by substrate addition and measured after 2 mins by Ellman's method
[26] = biological target: T4, Acetylcholinesterase; experiment: Inhibition of human acetylcholinesterase using acetylthiocholine as substrate pretreated followed by substrate addition and measured after 15 mins by Ellman's method
[27] = biological target: T1, Cholinesterase; experiment: Inhibition of equine serum BuChE using butyrylthiocholine iodide as substrate pretreated followed by substrate addition and measured after 2 mins by Ellman's method
[28] = biological target: T2, Cholinesterase; experiment: Inhibition of human butyrylcholinesterase using butyrylthiocholine iodide as substrate pretreated followed by substrate addition and measured after 15 mins by Ellman's method
[29] = species: Homo sapiens; experiment: Selectivity index, ratio of IC50 for human AChE to IC50 for human BuChE
[30] = biological target: T3, Acetylcholinesterase; remark: listed apart in the source
Description: Inhibition of bovine erythrocyte acetylcholinesterase using acetylthiocholine as substrate by Ellman's method

T4 sequence (P22303 whole entry): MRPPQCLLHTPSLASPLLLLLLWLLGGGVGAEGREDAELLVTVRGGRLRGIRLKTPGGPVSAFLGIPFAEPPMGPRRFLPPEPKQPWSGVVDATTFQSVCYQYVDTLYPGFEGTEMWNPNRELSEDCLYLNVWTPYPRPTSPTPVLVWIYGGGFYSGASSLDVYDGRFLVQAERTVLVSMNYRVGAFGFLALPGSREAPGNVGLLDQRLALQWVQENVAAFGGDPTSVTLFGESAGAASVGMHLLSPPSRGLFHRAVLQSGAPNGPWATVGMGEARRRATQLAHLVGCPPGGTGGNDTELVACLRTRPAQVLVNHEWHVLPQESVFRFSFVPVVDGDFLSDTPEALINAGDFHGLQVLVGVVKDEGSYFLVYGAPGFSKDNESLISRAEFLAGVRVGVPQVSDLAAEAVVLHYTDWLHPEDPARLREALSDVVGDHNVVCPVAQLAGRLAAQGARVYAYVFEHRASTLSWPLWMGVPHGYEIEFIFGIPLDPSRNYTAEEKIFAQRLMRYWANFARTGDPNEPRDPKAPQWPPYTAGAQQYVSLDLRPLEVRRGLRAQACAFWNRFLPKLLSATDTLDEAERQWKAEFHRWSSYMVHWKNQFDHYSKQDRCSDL
T1 sequence (P81908 whole entry): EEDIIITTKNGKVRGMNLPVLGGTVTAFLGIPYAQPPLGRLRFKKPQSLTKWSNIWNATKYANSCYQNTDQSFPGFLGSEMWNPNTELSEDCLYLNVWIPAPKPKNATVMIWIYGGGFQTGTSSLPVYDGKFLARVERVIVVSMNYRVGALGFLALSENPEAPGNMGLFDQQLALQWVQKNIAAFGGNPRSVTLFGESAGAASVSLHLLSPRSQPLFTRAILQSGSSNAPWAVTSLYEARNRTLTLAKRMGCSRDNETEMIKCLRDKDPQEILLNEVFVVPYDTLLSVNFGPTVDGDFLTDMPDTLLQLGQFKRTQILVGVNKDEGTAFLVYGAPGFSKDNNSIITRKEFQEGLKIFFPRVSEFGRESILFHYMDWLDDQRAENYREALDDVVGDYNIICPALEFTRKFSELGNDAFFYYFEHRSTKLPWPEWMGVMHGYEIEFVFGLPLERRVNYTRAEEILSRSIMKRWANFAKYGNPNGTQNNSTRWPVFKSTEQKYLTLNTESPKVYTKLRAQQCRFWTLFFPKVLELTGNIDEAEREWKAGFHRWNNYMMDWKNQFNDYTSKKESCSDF
T2 sequence (P06276 whole entry): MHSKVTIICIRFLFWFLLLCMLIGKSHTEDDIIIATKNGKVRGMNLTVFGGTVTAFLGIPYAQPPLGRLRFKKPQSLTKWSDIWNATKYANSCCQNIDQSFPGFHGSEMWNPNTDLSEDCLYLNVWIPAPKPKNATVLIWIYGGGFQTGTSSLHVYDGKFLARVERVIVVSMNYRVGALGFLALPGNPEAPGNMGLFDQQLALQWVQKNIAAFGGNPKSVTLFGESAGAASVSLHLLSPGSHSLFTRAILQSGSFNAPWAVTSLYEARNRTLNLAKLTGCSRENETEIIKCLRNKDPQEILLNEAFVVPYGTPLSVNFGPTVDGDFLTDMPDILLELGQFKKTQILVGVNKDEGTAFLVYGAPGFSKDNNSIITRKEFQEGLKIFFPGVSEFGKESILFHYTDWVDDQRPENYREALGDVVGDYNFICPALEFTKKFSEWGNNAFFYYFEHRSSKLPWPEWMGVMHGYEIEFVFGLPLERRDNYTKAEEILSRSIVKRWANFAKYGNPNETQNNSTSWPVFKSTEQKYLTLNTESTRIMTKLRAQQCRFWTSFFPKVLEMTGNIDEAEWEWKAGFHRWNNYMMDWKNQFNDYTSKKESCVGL
T5 sequence (O42275 whole entry): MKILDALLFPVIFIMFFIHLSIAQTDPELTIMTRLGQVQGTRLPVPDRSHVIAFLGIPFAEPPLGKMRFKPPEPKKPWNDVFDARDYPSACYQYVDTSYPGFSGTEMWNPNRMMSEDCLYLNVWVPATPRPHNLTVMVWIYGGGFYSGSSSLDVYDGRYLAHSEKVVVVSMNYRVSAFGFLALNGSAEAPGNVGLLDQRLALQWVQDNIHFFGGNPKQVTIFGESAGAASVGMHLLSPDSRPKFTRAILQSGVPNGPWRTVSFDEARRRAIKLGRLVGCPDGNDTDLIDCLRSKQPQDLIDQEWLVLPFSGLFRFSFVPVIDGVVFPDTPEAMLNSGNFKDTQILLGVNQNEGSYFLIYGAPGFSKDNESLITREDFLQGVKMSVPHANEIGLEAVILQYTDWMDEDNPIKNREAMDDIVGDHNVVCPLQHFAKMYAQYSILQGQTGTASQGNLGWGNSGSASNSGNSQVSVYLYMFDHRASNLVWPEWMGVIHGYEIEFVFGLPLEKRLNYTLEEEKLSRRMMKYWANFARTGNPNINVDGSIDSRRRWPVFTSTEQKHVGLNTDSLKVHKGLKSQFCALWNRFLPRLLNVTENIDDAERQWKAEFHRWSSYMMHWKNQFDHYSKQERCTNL
Sequence of Amyloid-beta precursor protein (Homo sapiens) (P05067 whole entry): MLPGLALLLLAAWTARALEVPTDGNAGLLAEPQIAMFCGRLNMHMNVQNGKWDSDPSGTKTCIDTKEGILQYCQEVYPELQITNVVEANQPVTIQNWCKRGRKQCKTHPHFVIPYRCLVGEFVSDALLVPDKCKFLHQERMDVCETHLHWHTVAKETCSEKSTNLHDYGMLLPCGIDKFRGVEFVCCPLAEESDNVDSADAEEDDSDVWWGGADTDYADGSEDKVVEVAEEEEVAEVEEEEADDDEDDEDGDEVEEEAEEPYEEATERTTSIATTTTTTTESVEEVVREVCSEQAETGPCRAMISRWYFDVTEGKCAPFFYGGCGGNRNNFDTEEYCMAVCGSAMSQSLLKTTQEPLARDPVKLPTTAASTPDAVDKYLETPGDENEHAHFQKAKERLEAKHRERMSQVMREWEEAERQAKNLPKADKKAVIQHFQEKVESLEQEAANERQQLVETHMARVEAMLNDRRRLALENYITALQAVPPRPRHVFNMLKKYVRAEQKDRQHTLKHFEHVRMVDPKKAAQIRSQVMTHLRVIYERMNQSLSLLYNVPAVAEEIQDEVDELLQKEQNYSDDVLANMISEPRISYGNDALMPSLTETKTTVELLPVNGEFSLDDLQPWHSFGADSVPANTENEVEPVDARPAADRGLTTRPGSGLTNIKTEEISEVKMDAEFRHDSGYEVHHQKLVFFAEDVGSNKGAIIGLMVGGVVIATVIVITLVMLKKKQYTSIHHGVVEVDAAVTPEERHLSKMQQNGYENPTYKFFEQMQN
T6 sequence (P56817 whole entry): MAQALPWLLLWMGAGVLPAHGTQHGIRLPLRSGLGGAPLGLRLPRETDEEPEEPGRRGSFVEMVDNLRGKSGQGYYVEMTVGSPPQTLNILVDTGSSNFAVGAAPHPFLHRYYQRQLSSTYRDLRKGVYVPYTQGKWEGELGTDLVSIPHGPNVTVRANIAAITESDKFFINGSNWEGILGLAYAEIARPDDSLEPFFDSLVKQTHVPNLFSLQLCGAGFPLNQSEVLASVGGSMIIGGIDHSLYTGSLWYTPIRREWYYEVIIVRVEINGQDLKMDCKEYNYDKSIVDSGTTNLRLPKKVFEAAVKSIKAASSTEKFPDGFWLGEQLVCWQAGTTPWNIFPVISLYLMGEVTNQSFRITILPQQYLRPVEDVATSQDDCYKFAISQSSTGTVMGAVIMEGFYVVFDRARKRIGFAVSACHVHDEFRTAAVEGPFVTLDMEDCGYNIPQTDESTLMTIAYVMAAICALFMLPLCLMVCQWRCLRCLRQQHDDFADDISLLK
Sequence of Histamine H3 receptor (Q9Y5N1 whole entry): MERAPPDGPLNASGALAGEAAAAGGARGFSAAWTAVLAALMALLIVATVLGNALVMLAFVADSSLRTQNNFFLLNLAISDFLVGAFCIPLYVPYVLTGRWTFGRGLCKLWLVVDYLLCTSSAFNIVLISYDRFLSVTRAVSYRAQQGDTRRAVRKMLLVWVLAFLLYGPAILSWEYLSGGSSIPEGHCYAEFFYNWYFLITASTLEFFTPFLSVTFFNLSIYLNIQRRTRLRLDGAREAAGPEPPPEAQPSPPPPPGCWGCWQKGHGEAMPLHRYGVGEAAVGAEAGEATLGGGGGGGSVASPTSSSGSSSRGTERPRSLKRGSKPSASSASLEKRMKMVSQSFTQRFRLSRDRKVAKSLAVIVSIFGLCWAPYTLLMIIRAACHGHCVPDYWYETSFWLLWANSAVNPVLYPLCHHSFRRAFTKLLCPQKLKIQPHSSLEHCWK
Sequence of Amine oxidase [flavin-containing] B (P27338 whole entry): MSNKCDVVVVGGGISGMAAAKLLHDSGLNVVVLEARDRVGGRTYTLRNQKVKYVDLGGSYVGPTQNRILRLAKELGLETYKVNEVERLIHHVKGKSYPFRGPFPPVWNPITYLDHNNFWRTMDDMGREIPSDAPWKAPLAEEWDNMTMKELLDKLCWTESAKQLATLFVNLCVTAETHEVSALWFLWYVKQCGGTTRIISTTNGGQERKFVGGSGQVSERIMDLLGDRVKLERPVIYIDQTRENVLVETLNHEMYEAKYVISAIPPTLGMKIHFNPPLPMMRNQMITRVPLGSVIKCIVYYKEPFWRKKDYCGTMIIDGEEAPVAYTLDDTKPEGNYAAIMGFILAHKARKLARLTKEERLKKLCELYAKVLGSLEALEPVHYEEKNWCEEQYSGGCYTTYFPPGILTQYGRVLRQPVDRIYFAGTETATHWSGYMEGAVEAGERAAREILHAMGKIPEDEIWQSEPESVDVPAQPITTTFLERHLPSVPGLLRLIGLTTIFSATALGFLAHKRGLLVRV

SMILES: C#CCN[C@@H]1CCc2ccc(OC(=O)N(C)CC)cc21 [LADOSTIGIL]
- inhibition in vivo at 26 mg/kg [1]: 71%
- inhibition in vivo at 26 mg/kg [2]: 66%

SMILES: C#CCN(C)C(C)Cc1cccc(OC(=O)N(C)CCCCCC)c1 (racemic)
- IC50 [3]: 720 nM

SMILES: Cc1cc(=O)oc2cc(OC/C=C/CCn3cnc4c(N5CCCC5)ncnc43)ccc12
- IC50 [4]: 4650 nM

SMILES: CC1=CC2Cc3nc4cc(Cl)ccc4c(N)c3C(C1)C2 (single isomer, unassigned; (+)) [HUPRINE Y]
- IC50 [5]: 36.1 nM

SMILES: C#CCN(C)Cc1cc2cc(OCCCC3CCN(Cc4ccccc4)CC3)ccc2n1C
- IC50 [6]: 1820 nM
- IC50 [7]: 0.27 nM
- IC50 [8]: 810 nM
- Ki [9]: 84.2 nM

SMILES: Cc1cc(=O)oc2ccc(OC/C=C/CCn3cnc4c(N5CCCCC5)ncnc43)cc12
- IC50 [10]: 11900 nM
- IC50 [11]: 6800 nM

SMILES: Oc1ccc(/C=C/c2cc(O)c3ncccc3c2)cc1
- inhibition [12]: 71.7%
- Ratio (umolequiv/umol) [13]: 2.18

SMILES: O=C(NCCc1c[nH]c2ccccc12)c1cc(-c2ccccc2Cl)on1
- IC50 [14]: 29500 nM
- IC50 [15]: 46100 nM

SMILES: c1ccc2c(NCc3ccc(-c4ccc(CNc5c6c(nc7ccccc57)CCCC6)cc4)cc3)c3c(nc2c1)CCCC3
- IC50 [16]: 3.61 nM
- IC50 [17]: 0.86 nM
- inhibition [18]: 89.7%
- IC50 [19]: 2770 nM
- inhibition [20]: 61.8%
- inhibition [21]: 75.5%

SMILES: O=C(NCCCCCCNc1c2c(nc3ccccc13)CCCC2)c1cc(O)c2c(c1)C(=O)c1cccc(O)c1C2=O
- IC50 [22]: 27.3 nM
- IC50 [23]: 200 nM
- inhibition [24]: 70.2%

SMILES: COc1cc(/C=C/C(=O)NCCNc2c3c(nc4ccccc24)CCCC3)ccc1OCc1ccccc1
- IC50 [25]: 15.8 nM
- IC50 [26]: 55.1 nM
- IC50 [27]: 52.6 nM
- IC50 [28]: 55.9 nM
- Selectivity Index [29]: 1

SMILES: C/C=C1\C2C=C(C)CC1c1c(nc3ccccc3c1N)C2 (racemic)
- IC50 [30]: 320 nM
